The record followed here is patent publication US20110098301A1, “Pyrimidine Derivatives for Treatment of Hyperproliferative Disorders” (BAYER HEALTHCARE LLC, priority 2005, published 2011).

Molecules are shown by their SMILES. pIC50: −log10 of the molar value.

By pIC50 is commonly meant −log10 of the IC50, conventionally taken in molar units.

In the experiment the test system is HCT116 cells. In words: Cytotoxic activity: tumor cell proliferation assay (Alamar Blue). Format: cell-based. Conditions: Homo sapiens, HCT-116, 72 h with compound, Alamar Blue readout. (Resazurin is reduced to fluorescent resorufin, in cell work by metabolically active cells.)
Protocol: The following section describes an assay that can be used to characterize compounds of the invention, e.g., to test for the cytotoxic activity of compounds on cells.
Human tumor cells, e.g., HCT116 cells, are seeded in a 96-well plate at 3.0×10^3 cells/well and grown in 100 μl of RPMI complete media (Invitrogen Corporation, Grand Island, N.Y., USA) containing 10% fetal bovine serum (Hyclone, Logan, Utah, USA) and 10 mM HEPES and at 37° C. for 16 h in an incubator with 5% CO2. To each well, 50 μl of additional growth media containing 20 μM to 60 nM concentrations of compound with 0.2% DMSO is added. Cells are grown for another 72 h at 37° C. 20 μl of Alamar Blue (Trek Diagnostic Systems, Inc., Cleveland, Ohio, USA) reagent is added to each well and incubated for 4 h at 37° C. Plates are read in a SpectraMax Gemini (Molecular Devices, CA, USA) with 544 nm excitation and 590 nm emission wavelength. IC50 values are determined by linear regression analysis of log drug concentration versus percent inhibition.
Turning to `Nc1ccc(-c2cc(Nc3ccc(Oc4ccnc(C(F)(F)F)n4)cc3)nc(N)n2)cn1` [Example 339, 6-(6-aminopyridin-3-yl)-N^4-(4-{[2-(trifluoromethyl)pyrimidin-4-yl]oxy}phenyl)pyrimidine-2,4-diamine], the pIC50 is 8.52.
In the case of `Nc1nc(Nc2ccc(Oc3ccnc(C(F)(F)F)n3)cc2)cc(-c2ccccc2)n1` [Example 338, 6-phenyl-N^4-(4-{[2-(trifluoromethyl)pyrimidin-4-yl]oxy}phenyl)pyrimidine-2,4-diamine], the pIC50 is 7.77.
For the compound `Cc1cccc(C)c1-c1cc(Nc2ccc(Oc3ccnc(C(F)(F)F)c3)cc2)nc(N)n1` [Example 335, 6-(2,6-dimethylphenyl)-N^4-(4-{[2-(trifluoromethyl)pyridin-4-yl]oxy}phenyl)pyrimidine-2,4-diamine], the pIC50 was 7.21.
The figure for `Nc1nc(Nc2ccc(Oc3ccnc(C(F)(F)F)c3)cc2)cc(-c2cncnc2)n1` [Example 337, N^6-(4-{[2-(trifluoromethyl)pyridin-4-yl]oxy}phenyl)-4,5′-bipyrimidine-2,6-diamine] is 6.87; for `Cc1cc(Oc2ccc(Nc3cc(-c4ccc(N)nc4)nc(N)n3)cc2)ccn1` [Example 336, 6-(6-aminopyridin-3-yl)-N^4-{4-[(2-methylpyridin-4-yl)oxy]phenyl}pyrimidine-2,4-diamine] it is 8.22.
